This note sets out measurements from US12295939B2, “Substituted benzothiophene analogs as selective estrogen receptor degraders” (The Board of Trustees of the University of Illinois, priority 2018, dated 2025).

The subject of one assay is ER (ERE). Put plainly: ER antagonism (ERE). The format is cell-based. The protocol: (§1) Example compounds were assayed to determine ER downregulation, relative binding affinity, and ER antagonism.
In assay [1] the test system is tamoxifen-sensitive ER+ MCF-7:WS8 breast cancer cells. Put plainly: Growth inhibition in tamoxifen-sensitive ER+ MCF-7:WS8 breast cancer cells. The format is cell-based. The following applies: MCF7:WS8, MCF-7:WS8 cells; for IC50: assayed from 0.01 nM to 1 uM; for Emax: read-out: MCF7:WS8 Max efficacy (%).
In assay [2] the test system is tamoxifen-resistant MCF-7:5C breast cancer cells. Put plainly: Growth inhibition in tamoxifen-resistant MCF-7:5C breast cancer cells. The following applies: MCF7:5C, MCF-7:5C cells; for IC50: assayed from 0.01 nM to 1 uM; for Emax: read-out: MCF7:5C Max efficacy (%). The format is cell-based.
The target in a further assay is T1, ER (Homo sapiens, UniProt P03372).
T1 construct: endogenous in cells
T1 sequence (P03372 1-595): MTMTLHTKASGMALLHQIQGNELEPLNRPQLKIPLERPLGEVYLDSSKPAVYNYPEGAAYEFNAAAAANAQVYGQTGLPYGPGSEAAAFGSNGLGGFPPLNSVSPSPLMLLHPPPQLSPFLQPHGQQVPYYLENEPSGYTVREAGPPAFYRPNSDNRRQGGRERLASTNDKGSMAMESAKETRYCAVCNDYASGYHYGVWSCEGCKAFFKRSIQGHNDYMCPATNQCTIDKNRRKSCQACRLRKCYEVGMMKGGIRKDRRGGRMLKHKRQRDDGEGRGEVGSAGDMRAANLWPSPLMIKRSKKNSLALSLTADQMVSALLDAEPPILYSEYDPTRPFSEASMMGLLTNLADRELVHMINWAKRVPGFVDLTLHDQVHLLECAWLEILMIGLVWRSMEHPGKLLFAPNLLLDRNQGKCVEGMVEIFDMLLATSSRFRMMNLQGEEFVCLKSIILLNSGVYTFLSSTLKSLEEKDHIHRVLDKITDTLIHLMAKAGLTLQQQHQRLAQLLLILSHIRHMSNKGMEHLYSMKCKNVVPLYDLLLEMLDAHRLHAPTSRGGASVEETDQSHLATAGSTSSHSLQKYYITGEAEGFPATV
Put plainly: Relative binding affinity (RBA). Here is the method: as §1

With `O=C(c1ccc(O)cc1)c1sc2cc(O)ccc2c1Oc1ccc(OCCN2CC(CF)C2)cc1` [Compound 1, (3-(4-(2-(3-(fluoromethyl)azetidin-1-yl)ethoxy)phenoxy)-6-hydroxybenzo[b]thiophen-2-yl)(4-hydroxyphenyl) methanone], the IC50 in the assay with ER (ERE) is 6.4 ± 0.4 nM; in assay [1], 1.1 ± 0.1 nM; in assay [2] it was 1.2 ± 0.3 nM. Also, the Emax was 75% in assay [1] and 30% in assay [2].

`Cc1cc(O)ccc1C(=O)c1sc2cc(O)ccc2c1Oc1ccc(OCCN2CC(CF)C2)cc1` [Compound 2, (3-(4-(2-(3-(fluoromethyl)azetidin-1-yl)ethoxy)phenoxy)-6-hydroxybenzo[b]thiophen-2-yl)(4-hydroxy-2-methylphenyl) methanone]: in assay [1], half-maximal inhibition (IC50) required 0.5 ± 0.05 nM and the Emax stood at 80%. In assay [2], the IC50 was 7.9 ± 0.15 nM and the Emax was determined as 45%.

As for `O=C(c1ccccc1)c1sc2cc(O)ccc2c1Oc1ccc(OCCN2CC(CF)C2)cc1` [Compound 3, (3-(4-(2-(3-(fluoromethyl)azetidin-1-yl)ethoxy)phenoxy)-6-hydroxybenzo[b]thiophen-2-yl)(phenyl)methanone], the values for the IC50 (with ER (ERE); in assay [1]; in assay [2]) were 4.3 ± 0.1 nM, 0.55 ± 0.01 nM and 15 ± 4 nM, respectively. Besides, the Emax in assay [1] was 65%; in assay [2] it was 60%. Besides, the “RBA (%)” value at ER turned out to be 30.7 ± 7%.

On to `Cc1cc(F)ccc1C(=O)c1sc2cc(O)ccc2c1Oc1ccc(OCCN2CC(CF)C2)cc1` [Compound 4, (4-fluoro-2-methylphenyl)(3-(4-(2-(3-(fluoromethyl)azetidin-1-yl)ethoxy)phenoxy)-6-hydroxybenzo[b]thiophen-2-yl)methanone], for which the values for the IC50 (in the assay on ER (ERE); in assay [1]; in assay [2]) were 2.7 ± 0.09 nM, 0.3 ± 0.02 nM and 0.2 ± 0.02 nM, respectively. In addition, the Emax in assay [1] was 75%; in assay [2], 50%.

Regarding `Cc1cc(F)cc(C)c1C(=O)c1sc2cc(O)ccc2c1Oc1ccc(OCCN2CC(CF)C2)cc1` [Compound 5, (4-fluoro-2,6-dimethylphenyl)(3-(4-(2-(3-(fluoromethyl)azetidin-1-yl)ethoxy)phenoxy)-6-hydroxybenzo[b]thiophen-2-yl)methanone], the IC50 was 3.5 ± 0.06 nM in the assay with ER (ERE), 0.41 ± 0.01 nM in assay [1] and 3.4 ± 0.5 nM in assay [2]. Besides, the figures for the Emax in assay [1] and in assay [2] were 70% and 55%, respectively.

For `Cc1ccccc1C(=O)c1sc2cc(O)ccc2c1Oc1ccc(OCCN2CC(CF)C2)cc1` [Compound 8, (3-(4-(2-(3-(fluoromethyl)azetidin-1-yl)ethoxy)phenoxy)-6-hydroxybenzo[b]thiophen-2-yl)(o-tolyl)methanone], the IC50 with ER (ERE) was found to be 1.5 ± 0.09 nM; in assay [1], 0.73 ± 0.02 nM; in assay [2], 0.65 ± 0.03 nM. Also, the figures for the Emax in assay [1] and in assay [2] were 70% and 40%, respectively. For the same compound, the “RBA (%)” value on ER was 46.5 ± 7%.

As for `Cc1cccc(C)c1C(=O)c1sc2cc(O)ccc2c1Oc1ccc(OCCN2CC[C@@H](CF)C2)cc1` [Compound 9, (R)-(2,6-dimethylphenyl)(3-(4-(2-(3-(fluoromethyl)pyrrolidin-1-yl)ethoxy)phenoxy)-6-hydroxybenzo[b]thiophen-2-yl)methanone], the IC50 in the assay with ER (ERE) was 45 ± 15 nM; in assay [1], 0.1 ± 0.01 nM; in assay [2], 0.23 ± 0.06 nM. Moreover, the Emax is 85% in assay [1] and 25% in assay [2].

As for `O=C(c1ccccc1)c1sc2cc(O)ccc2c1Oc1ccc(OC2CN(CCCF)C2)cc1` [Compound 15, (3-(4-((1-(3-fluoropropyl)azetidin-3-yl)oxy)phenoxy)-6-hydroxybenzo[b]thiophen-2-yl)(phenyl)methanone], the figures for the IC50 (with ER (ERE); in assay [1]; in assay [2]) were 5.2 ± 0.06 nM, 0.15 ± 0.02 nM and 0.12 ± 0.02 nM, respectively. The Emax in assay [1] is 60%; in assay [2], 40%.

For the compound `Cc1cc(F)ccc1C(=O)c1sc2cc(O)ccc2c1Oc1ccc(OC2CN(CCCF)C2)cc1` [Compound 16, (4-fluoro-2-methylphenyl)(3-(4-((1-(3-fluoropropyl)azetidin-3-yl)oxy)phenoxy)-6-hydroxybenzo[b]thiophen-2-yl)methanone], the values for the IC50 (with ER (ERE); in assay [1]; in assay [2]) were 11 ± 0.5 nM, 0.15 ± 0.02 nM and 0.95 ± 0.04 nM, respectively. Moreover, the Emax in assay [1] was 70%; in assay [2], 50%. Moreover, at ER, the “RBA (%)” value was 38.1 ± 9%.

For the compound `Cc1cc(F)cc(C)c1C(=O)c1sc2cc(O)ccc2c1Oc1ccc(OC2CN(CCCF)C2)cc1` [Compound 17, (4-fluoro-2,6-dimethylphenyl)(3-(4-((1-(3-fluoropropyl)azetidin-3-yl)oxy)phenoxy)-6-hydroxybenzo[b]thiophen-2-yl)methanone], in assay [1], inhibition was half-maximal at 0.55 ± 0.01 nM (IC50) and the Emax turned out to be 75%. Moreover, in assay [2], half-maximal inhibition (IC50) required 0.15 ± 0.06 nM and the Emax came to 70%.

Take `Cc1cc(F)cc(C)c1C(=O)c1sc2cc(O)ccc2c1Oc1ccc(OCCN2CC[C@@H](CF)C2)cc1` [Compound 35, (R)-(4-fluoro-2,6-dimethylphenyl)(3-(4-(2-(3-(fluoromethyl)pyrrolidin-1-yl)ethoxy)phenoxy)-6-hydroxybenzo[b]thiophen-2-yl)methanone]: the concentration for half-maximal inhibition (IC50) was found to be 12 ± 2 nM in the assay on ER (ERE), 0.56 ± 0.01 nM in assay [1] and 0.28 ± 0.07 nM in assay [2]. Moreover, the Emax in assay [1] turned out to be 65%; in assay [2] it was 40%.

Regarding `Cc1ccccc1C(=O)c1sc2cc(O)ccc2c1Oc1ccc(OCCN2CCC2)cc1` [Compound 59, (3-(4-(2-(azetidin-1-yl)ethoxy)phenoxy)-6-hydroxybenzo[b]thiophen-2-yl)(o-tolyl)methanone], in assay [1], the IC50 was 0.5 ± 0.05 nM and the Emax came to 70%. For the same compound, in assay [2], the IC50 is 0.31 ± 0.07 nM and the Emax came to 35%.

`Cc1ccccc1C(=O)c1sc2cc(O)ccc2c1Oc1ccc(OCCN2CC(C)C2)cc1` [Compound 60, (6-hydroxy-3-(4-(2-(3-methylazetidin-1-yl)ethoxy)phenoxy)benzo[b]thiophen-2-yl)(o-tolyl)methanone]: the IC50 was determined as 1.9 ± 0.06 nM in the assay on ER (ERE), 0.02 ± 0.004 nM in assay [1] and 0.65 ± 0.01 nM in assay [2]. Besides, the Emax in assay [1] stood at 75%; in assay [2], 55%.

On to `O=C(c1cccc(F)c1)c1sc2cc(O)ccc2c1Oc1ccc(OCCN2CC(CF)C2)cc1` [Compound 62, (3-(4-(2-(3-(fluoromethyl)azetidin-1-yl)ethoxy)phenoxy)-6-hydroxybenzo[b]thiophen-2-yl)(3-fluorophenyl) methanone], for which, in assay [1], the IC50 is 0.28 ± 0.03 nM and the Emax is 75%. Also, in assay [2], the midpoint of inhibition, the IC50, lay at 1.4 ± 0.2 nM and the Emax worked out at 60%. For the same compound, on ER, the “RBA (%)” value came to 120 ± 13%.

As to `Cc1ccc(C(=O)c2sc3cc(O)ccc3c2Oc2ccc(OCCN3CC(CF)C3)cc2)c(C)c1` [Compound 63, (2,4-dimethylphenyl)(3-(4-(2-(3-(fluoromethyl)azetidin-1-yl)ethoxy)phenoxy)-6-hydroxybenzo[b]thiophen-2-yl)methanone], the IC50 turned out to be 7.4 ± 0.3 nM in the assay with ER (ERE), 0.47 ± 0.009 nM in assay [1] and 0.56 ± 0.005 nM in assay [2]. Moreover, the values for the Emax in assay [1] and in assay [2] were 65% and 50%, respectively.

For the compound `Cc1cc(F)cc(C)c1C(=O)c1sc2cc(O)ccc2c1Oc1ccc(OCCN2CC[C@H](CF)C2)cc1` [Compound 64, (S)-(4-fluoro-2,6-dimethylphenyl)(3-(4-(2-(3-(fluoromethyl)pyrrolidin-1-yl)ethoxy)phenoxy)-6-hydroxybenzo[b]thiophen-2-yl)methanone], the results for the IC50 (in the assay on ER (ERE); in assay [1]; in assay [2]) were 0.05 ± 0.001 nM, 0.36 ± 0.001 nM and 0.16 ± 0.1 nM, respectively. In addition, the Emax in assay [1] came out at 70%; in assay [2], 50%.

In the case of `O=C(c1cccc(F)c1)c1sc2cc(O)ccc2c1Oc1ccc(OC2CN(CCCF)C2)cc1` [Compound 66, (3-fluorophenyl)(3-(4-((1-(3-fluoropropyl)azetidin-3-yl)oxy)phenoxy)-6-hydroxybenzo[b]thiophen-2-yl)methanone], in assay [1], the IC50 stood at 0.27 ± 0.006 nM and the Emax is 70%. Further, in assay [2], the IC50 is 0.12 ± 0.03 nM and the Emax was 35%.

Regarding `Cc1cc(F)cc(C)c1C(=O)c1sc2cc(O)ccc2c1Oc1ccc(OC2CN(C3CC3)C2)cc1` [Compound 67, (3-(4-((1-cyclopropylazetidin-3-yl)oxy)phenoxy)-6-hydroxybenzo[b]thiophen-2-yl)(4-fluoro-2,6-dimethylphenyl) methanone], in assay [1], the IC50 was 0.42 ± 0.04 nM and the Emax was 65%. Further, in assay [2], the midpoint of inhibition, the IC50, lay at 1 ± 0.8 nM and the Emax came to 20%.

On to `C[C@]12CC[C@@H]3c4ccc(O)cc4C[C@@H](CCCCCCCCC[S+]([O-])CCCC(F)(F)C(F)(F)F)[C@H]3[C@@H]1CC[C@@H]2O` (stereo partly drawn) [Fulvestrant, fulvestrant, reference compound], for which the IC50 stood at […] in the assay on ER (ERE), 0.48 ± 0.03 nM in assay [1] and 1.9 ± 0.01 nM in assay [2]. Further, the Emax was 75% in assay [1] and 55% in assay [2].
